Laboratory results from patent US10280167B2, “Purine derivatives for the treatment of viral infections” (JANSSEN SCIENCES IRELAND UC, priority 2011, dated 2019).

Columns and labels:
Format in all cases: cell-based
[1] = tested on: Huh-7 luc/neo HCV replicon cells with conditioned media from PBMC; assay: Interferon production in human PBMC (PBMC-HUH7_EC50), HCV replicon readout with conditioned media; details: Homo sapiens, Huh-7; concentration applied to PBMCs giving 50% reduction of replicon luciferase activity
Method: Measurement of Interferon Production in Human PBMC (PBMC-HUH7_EC50)
Activation of human TLR7 results in robust production of interferon by plasmacytoid dendritic cells present in human blood. The potential of compounds to induce interferon was evaluated by looking at the antiviral activity in the HCV replicon system upon incubation with conditioned media from peripheral blood mononuclear cells (PBMC). The HCV replicon assay is based on a bicistronic expression construct, as described by Lohmann et al. (Science (1999) 285: 110-113; Journal of Virology (2003) 77: 3007-15 3019) with modifications described by Krieger et al. (Journal of Virology (2001) 75: 4614-4624). The assay utilized the stably transfected cell line Huh-7 luc/neo harboring an RNA encoding a bicistronic expression construct comprising the wild type NS3-NS5B regions of HCV type 1b translated from an Internal Ribosome Entry Site (IRES) from encephalomyocarditis virus (EMCV), preceded by a reporter gene (Firefly-luciferase) and a selectable marker gene (neoR, neomycine phosphotransferase). The construct is flanked by 5′ and 3′ NTRs (non-translated regions) from HCV type 1b. Continued culture of the replicon cells in the presence of G418 (neoR) is dependent on the replication of the HCV RNA. The stably transfected replicon cells that replicate HCV RNA autonomously and to high levels, encoding inter alia luciferase, were used for profiling of the conditioned cell culture media. Briefly, PBMCs were prepared from buffy coats of at least two donors using a standard Ficoll centrifugation protocol. Isolated PBMCs were resuspended in RPMI medium supplemented with 10% human AB serum and 2×10^5 cells/well were dispensed into 384-well plates containing compounds (70 μL total volume). After overnight incubation, […] was transferred to 384-well plates containing 2.2×10^3 replicon cells/well in 30 μL (plated the day before). Following 24 hours of incubation, replication was measured by assaying luciferase activity using 40 μL/well Steady Lite Plus substrate (Perkin Elmer) and measured with ViewLux ultraHTS microplate imager (Perkin Elmer). The inhibitory activity of each compound on the Huh7-luc/neo cells were reported as EC50 values, defined as the compound concentration applied to the PBMCs resulting in a 50% reduction of luciferase activity which in turn indicates the degree of replication of the replicon RNA on transfer of a defined amount of PBMC culture medium. Recombinant interferon α-2a (Roferon-A) was used as a standard control compound.

human TLR7 dIRR2 mutant [2] = assay: Reporter assay for TLR7 activity, HEK293 transfected with mutant TLR7 (dIRR2 deletion) and NFκB-luc; details: lowest effective concentration; 24 h transfection
Method: (§1) Reporter Assays for Assessment of TLR7 Activity (24 h)
(§2) The ability of compounds to activate human TLR7 was assessed in a cellular reporter assay using HEK293 cells transiently transfected with a TLR7 or TLR8 expression vector and NFκB-luc reporter construct. In one instance the TLR expression construct expresses the respective wild type sequence or a mutant sequence comprising a deletion in the second leucine-rich repeat (dIRR2) of the TLR.
(§3) Briefly, HEK293 cells were grown in culture medium (DMEM supplemented with 10% FCS and 2 mM Glutamine). For transfection of cells in 10 cm dishes, cells were detached with Trypsin-EDTA, transfected with a mix of CMV-TLR7 or TLR8 plasmid (750 ng), NFκB-luc plasmid (375 ng) and a transfection reagent and incubated 24 hours or 48 hours respectively at 37° C. in a humidified 5% CO2 atmosphere. Transfected cells were then detached with Trypsin-EDTA, washed in PBS and resuspended in medium to a density of 1.67×10^5 cells/mL. Thirty microliters of cells were then dispensed into each well in 384-well plates, where 10 μL of compound in 4% DMSO was already present. Following 6 hours incubation at 37° C., 5% CO2, the luciferase activity was determined by adding 15 μl of Steady Lite Plus substrate (Perkin Elmer) to each well and readout performed on a ViewLux ultraHTS microplate imager (Perkin Elmer). Dose response curves were generated from measurements performed in quadruplicates. Lowest effective concentrations (LEC) values, defined as the concentration that induces an effect which is at least two fold above the standard deviation of the assay, were determined for each compound. Compound toxicity was determined in parallel using a similar dilution series of compound with 30 μL per well of cells transfected with the CMV-TLR7 construct alone (1.67×10^5 cells/mL), in 384-well plates. Cell viability was measured after 6 hours incubation at 37° C., 5% CO2 by adding 15 μL of ATP lite (Perkin Elmer) per well and reading on a ViewLux ultraHTS microplate imager (Perkin Elmer). Data was reported as CC50.

human TLR7 dIRR2 mutant [3] = assay: as above; details: lowest effective concentration; 48 h transfection
human TLR7 [4] = biological target: T1, human TLR7 (Homo sapiens (Human), UniProt Q9NYK1); assay: Reporter assay for TLR7 activity, HEK293 transiently transfected with wild type TLR7 and NFκB-luc; details: lowest effective concentration; 48 h transfection
T1 sequence (Q9NYK1 27-1049): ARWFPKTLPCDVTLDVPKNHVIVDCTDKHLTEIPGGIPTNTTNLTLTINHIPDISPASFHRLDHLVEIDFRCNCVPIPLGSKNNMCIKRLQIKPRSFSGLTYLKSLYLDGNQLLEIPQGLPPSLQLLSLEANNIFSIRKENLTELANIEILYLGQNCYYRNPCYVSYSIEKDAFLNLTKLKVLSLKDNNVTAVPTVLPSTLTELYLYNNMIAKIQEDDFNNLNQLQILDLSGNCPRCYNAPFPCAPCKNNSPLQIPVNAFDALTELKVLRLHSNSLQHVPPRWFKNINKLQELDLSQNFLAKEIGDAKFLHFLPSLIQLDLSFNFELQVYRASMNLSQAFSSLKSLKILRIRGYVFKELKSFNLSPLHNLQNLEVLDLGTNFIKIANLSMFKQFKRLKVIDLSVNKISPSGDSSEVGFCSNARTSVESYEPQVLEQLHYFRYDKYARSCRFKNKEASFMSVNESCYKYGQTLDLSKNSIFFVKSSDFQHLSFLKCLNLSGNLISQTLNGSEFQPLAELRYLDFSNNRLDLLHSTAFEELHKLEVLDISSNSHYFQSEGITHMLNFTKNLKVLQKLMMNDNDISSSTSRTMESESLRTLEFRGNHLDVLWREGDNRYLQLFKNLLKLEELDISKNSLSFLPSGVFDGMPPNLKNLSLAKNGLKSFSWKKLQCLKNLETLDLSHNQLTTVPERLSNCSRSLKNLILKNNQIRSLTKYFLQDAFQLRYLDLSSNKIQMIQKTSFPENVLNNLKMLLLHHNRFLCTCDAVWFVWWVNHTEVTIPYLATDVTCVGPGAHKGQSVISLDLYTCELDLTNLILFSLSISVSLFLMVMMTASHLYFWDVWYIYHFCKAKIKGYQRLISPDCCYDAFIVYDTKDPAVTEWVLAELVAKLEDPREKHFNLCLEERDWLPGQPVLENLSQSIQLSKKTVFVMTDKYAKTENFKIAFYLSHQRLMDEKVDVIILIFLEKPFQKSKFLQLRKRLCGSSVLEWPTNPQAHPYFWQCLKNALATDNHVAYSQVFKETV

human TLR7 [5] = biological target: T1, human TLR7; assay: as above; details: lowest effective concentration; 24 h transfection
Method: as §1, §2, §3

[6] = tested on: HEK-ISRE-luc cells with conditioned media from PBMC; assay: Interferon production in human PBMC (PBMC HEK-ISRE-luc LEC); details: Homo sapiens, PBMC; lowest effective concentration; read-out: PBMC HEK-ISRE-luc (LEC)
Method: Measurement of Interferon Production in Human PBMC (PBMC HEK-ISRE-Luc LEC)
Activation of human TLR7 results in robust production of interferon by plasmacytoid dendritic cells present in human blood. The potential of compounds to induce interferon was evaluated by determination of interferon in the conditioned media from peripheral blood mononuclear cells (PBMC). The presence of interferon in the samples was determined, using an interferon reporter cell line stably expressing an interferon-stimulated responsive elements (ISRE)-luc reporter construct. The ISRE element with sequence GAAACTGAAACT (SEQ ID NO: 1) is highly responsive to the STAT1-STAT2-IRF9 transcription factor, which becomes activated upon binding of IFN-I to the IFN receptor. Briefly, PBMCs were prepared from buffy coats of at least two donors using a standard Ficoll centrifugation protocol. Isolated PBMCs were resuspended in RPMI medium supplemented with 10% human AB serum and 2×10^5 cells/well were dispensed into 384-well plates containing compounds (70 μL total volume). After overnight incubation of the PBMCs with the compounds, 10 μL of supernatant was transferred to 384-well plates containing 5×10^3 HEK-ISRE-luc cells/well in 30 μL (plated the day before). Following 24 hours of incubation, activation of the ISRE elements was measured by assaying luciferase activity using 40 μL/well Steady Lite Plus substrate (Perkin Elmer) and measured with ViewLux ultraHTS microplate imager (Perkin Elmer). The stimulating activity of each compound on the HEK-ISRE-luc cells was reported as LEC. The LEC in turn indicates the degree of ISRE activation on transfer of a defined amount of PBMC culture medium.
Recombinant interferon alfa-2a (Roferon-A) was used as a standard control compound.

Compound	EC50 [1] [nM]	TLR7-dIRR2_LEC 24 h (human TLR7 dIRR2 mutant [2]) [µM]	TLR7-dIRR2_LEC 48 h (human TLR7 dIRR2 mutant [3]) [µM]	TLR7-wt_LEC 48 h (human TLR7 [4]) [µM]	TLR7-wt_LEC 24 h (human TLR7 [5]) [µM]	minimal effective concentration [6] [µM]
Nc1nc(-c2ccco2)nc2c1[nH]c(=O)n2Cc1ccccc1 [Compound 20]	680	0.5	0.5	6.34		
Nc1nc(-c2ccc[nH]2)nc2c1[nH]c(=O)n2Cc1ccccc1 [Compound 18]	2580	3.23	3.81	20.31	>24.59	
Nc1nc(-c2nc(C3CC3)c[nH]2)nc2c1[nH]c(=O)n2Cc1ccccc1 [Compound 1]	81	0.33	0.18	8.25		0.064
Cc1[nH]c(-c2nc(N)c3[nH]c(=O)n(Cc4ccccc4)c3n2)nc1C1CC1 [Compound 5]	200	2.2	1.13	21.47		0.13
Nc1nc(-c2cn[nH]c2)nc2c1[nH]c(=O)n2Cc1ccccc1 [Compound 19]	12400	13.31	16.6	>25	>24.59	
Nc1nc(-c2cncnc2)nc2c1[nH]c(=O)n2Cc1ccccc1 [Compound 15]	16900	10.57	9.75	>25	>24.59	
Nc1nc(-c2ncc[nH]2)nc2c1[nH]c(=O)n2Cc1ccccc1 [Compound 4]	160	0.077	0.04	1.23		0.12
Nc1nc(-c2nc(-c3ccccc3)c[nH]2)nc2c1[nH]c(=O)n2Cc1ccccc1 [Compound 2]	531	1.2			4.72	
Nc1nc(-c2nc(C3CC3)c[nH]2)nc2c1[nH]c(=O)n2CC1CCOCC1 [Compound 10]	730	18.93	10.13	>25		0.44
